According to paper PMC6285983, “Novel broad spectrum virucidal molecules against enveloped viruses” (PLoS ONE, 2018):

Experiments:
[1] = Cell viability MTS assay, conditions of the RSV assay; type: cell-based; details: human, Hep-2 cells
Method: (§1) Cell viability was measured using the MTS [3- (4,5-dimethylthiazol-2-yl)-5- (3 carboxy methoxy phenyl)-2-(4-sulfophenyl)-2H-tetrazolium] assay. Cell cultures were seeded in 96-well plates and were incubated with different concentrations of compounds in duplicate under the same experimental conditions described for the antiviral assays, (i.e. if the incubation time of the compound on cells was carried for 2 hours and then the evaluation of the antiviral activity was done 72h later, the same timing was used for the cytotoxicity assays, in order to exclude any toxicity effect in the antiviral evaluation). Cell viability was determined using the CellTiter 96 Proliferation Assay Kit (Promega, Madison, WI, USA) according to the manufacturer's instructions. Absorbances were measured using a Microplate Reader (Model 680, BIORAD) at 490 nm. The effect on cell viability at different concentrations of the compound was expressed as a percentage, by comparing absorbances of treated cells with those of cells incubated with culture medium and equal volumes of vehicle. The 50% cytotoxic concentrations (CC50) and 95% confidence intervals (CIs) were determined using Prism software (Graph-Pad Software, San Diego, CA). For compound 9d a continuous incubation of 1, 2, 3 and 4 days on Vero cells was carried in order to evaluate the toxicity after long exposure the results are shown in S1 Fig and Fig 3. […]

[2] = tested on: HSV-2; test: HSV-2 plaquing efficiency assay, compound preincubated with virus 1 h at 37°C; type: cell-based; details: Human alphaherpesvirus 2, HSV-2, Vero cells, 1 h pre-incubation virus/compound
[3] = tested on: HSV-1; test: HSV-1 plaquing efficiency assay; type: cell-based
[4] = In vitro lipoperoxidation test (TBA assay, MDA); details: DPPC liposomes, 37°C, 30 minutes
[5] = tested on: HSV-2; test: Time of addition: pretreatment of cells before HSV-2 infection; type: cell-based; details: compound on cells 2 h before infection, then removed
Method: We performed assays aimed at better understanding the mechanism of action. In the pretreatment assay compound 9d was added on cells before the virus in order to determine if the antiviral activity was due to an interaction with the cells. Moreover, an assay was conducted adding virus and compound on cells without the preincubation performed in previous assays.
Fig 4 Time of addition assays. Compound 9d was added on cells 2 h before infection (PRE-TREATMENT CELLS) and subsequently the inocula were removed and cells were infected or compound and virus were added simultaneously on cells (DURING INFECTION) or after 1 h pre-incubation between the virus and the compound (PRE-TREATMENT VIRUS). Cells were fixed and stained 24 h later and plaques were counted.
Pretreatment: cells were pretreated for 2 h at 37°C with increasing concentrations of compounds, the inocula were then removed, cells washed and HSV-2 was added on cells for 2 h at 37°C. Subsequently the same protocol described above was followed.

[6] = tested on: ZIKV; test: ZIKV plaquing efficiency assay; type: cell-based, Zika virus (PRVABC59); details: Zika virus, ZIKAV
[7] = Cell viability MTS assay, conditions of the HCMV assay; type: cell-based; details: human, HELF cells
Method: as §1, with “vehicle.” for “vehicle. The 50% cytotoxic concentrations (CC50) and 95% confidence intervals (CIs) were determined using Prism software (Graph-Pad Software, San Diego, CA). For compound 9d a continuous incubation of 1, 2, 3 and 4 days on Vero cells was carried in order to evaluate the toxicity after long exposure the results are shown in S1 Fig and Fig 3.”
HELF cells were pre-plated in a 96-well plate. […] After five days incubation, cells were observed under an inverted Zeiss LSM510 fluorescence microscope (Zeiss, Oberkochen, Germany) and the percentages of infection were calculated by comparing GFP positive cells in treated and untreated wells.

[8] = Cell viability MTS assay on Vero cells; details: African green monkey
[9] = tested on: HSV-2; test: Virucidal assay; type: cell-based; details: for viral infectivity: 10 μM of compound
[10] = tested on: VSV; test: microbe, parasite or virus in culture; type: cell-based; details: Vesicular stomatitis virus
[11] = Cell viability MTS assay, conditions of the HRoV assay; type: cell-based; details: African green monkey, MA104 cells
Method: as §1

[12] = in vitro; details: African green monkey
[13] = tested on: HPV-16; test: HPV-16 inhibition assay on HeLa cells; type: cell-based, HPV-16 pseudovirions
Method: HeLa cells were plated in 96-well plates. […] The GFP-expressing infected cells were observed under an inverted Zeiss LSM510 fluorescence microscope (Zeiss, Oberkochen, Germany) and the percentages of infection were calculated by comparing GFP positive cells in treated and untreated wells.

[14] = tested on: HSV-2; test: Viral yield reduction, post treatment; details: Human alphaherpesvirus 2

Q: For CC(C)c1ccc(CCN2C(=O)/C(=C/c3ccc(-c4ccc(C(=O)O)c(O)c4)o3)SC2=S)cc1 [Compound 9d, (Z)-2-hydroxy-4-(5-((3-(4-isopropylphenethyl)-4-oxo-2-thioxothiazolidin-5-ylidene)methyl)furan-2-yl)benzoic acid], which CC50 at 3 h [1] is on record?
A: 17000 nM

Q: And the EC50 ([2]; plaques at 24 h, read-out: EC50 (95% C.I.))?
A: 6.55 nM

Q: And the EC90 ([2]; read-out: EC90 (95% C.I.))?
A: 40 nM

Q: What about the EC50 ([3]; Human alphaherpesvirus 1, read-out: EC50 (95% C.I.)) of the same compound?
A: 2.18 nM

Q: And the EC90 ([3]; Human alphaherpesvirus 1, read-out: EC90 (95% C.I.))?
A: 35.1 nM

Q: What about the “lipid peroxidation of linoleic acid (MDA)” value [4] of the same compound?
A: remarkable lipid peroxidation

Q: What about the “antiviral activity in pre-treatment assay” value [5] of the same compound?
A: not active

Q: And the EC50 ([6]; read-out: EC50 (95% C.I.))?
A: 69.9 nM

Q: And the EC90 ([6]; read-out: EC90 (95% C.I.))?
A: 147 nM

Q: What about the CC50 at 3 h [7] of the same compound?
A: 5240 nM

Q: What about the CC50 ([8]; CC50, Vero cells, MTS) of the same compound?
A: 2090 nM

Q: And the CC50 at 96 h ([8]; CC50, Vero cells, after 96h exposure)?
A: 2090 nM

Q: And the CC50 ([8]; CC50, conditions of HSV-1 assay)?
A: 2090 nM

Q: And the CC50 ([8]; CC50, conditions of HSV-2 acyclovir resistant assay)?
A: 2090 nM

Q: What about the CC50 ([8]; CC50, conditions of ZIKAV assay) of the same compound?
A: 8850 nM

Q: And the viral infectivity ([9]; 15' post treatment)?
A: decreased

Q: And the viral infectivity ([9]; from 30' on)?
A: completely abrogated

Q: And the “infectivity after dilution in drug free medium” value ([9]; 1h incubation, then diluted for additional 1, 2, 3 or 4 hours)?
A: not regained

Q: And the EC50 ([9]; Human alphaherpesvirus 2, virucidal assay, 1h of exposure, 10^5 pfu HSV-2)?
A: 37.3 nM

Q: What about the melting point of the same compound?
A: 259 °C (dec.)

Q: And the EC50 ([10]; read-out: EC50 (95% C.I.))?
A: 13.2 nM

Q: What about the EC90 ([10]; read-out: EC90 (95% C.I.)) of the same compound?
A: 117 nM

Q: What about the CC50 at 1 h [11] of the same compound?
A: 156000 nM

Q: What about the CC50 [12] of the same compound?
A: 24800 nM

Q: What about the “antiviral activity against non-enveloped virus” value [13] of the same compound?
A: inactive

Q: And the EC50 [14]?
A: 33.9 nM
